Experimental data as given in patent US20050132448A1, “Assay for beta cell toxic macrolides” (priority 2001, published 2005).

Test system: C57B1/6J mice
Assay: Size and number of pancreatic islets after vATPase inhibitors
Format: in vivo
Settings: for No. islets per mm^2 pancreas section / Median size: day 84, 5 daily doses of 12 ng/g body weight; for effect on islet number and size: i.p. 12 ng/gram body weight; for Median size: insulin-positive islets
Description: The effect of vATPase inhibitors on the size and number of pancreatic islets was analysed in C57B1/6J using either bafilomycin A1 (BA1) or concanamycin A (CMA). The effect of Streptozotocin, an islet beta-cell specific toxin produced by Streptomyces achromogenes was also examined, to enable comparison with the effect of vATPase inhibitors.
Groups of 4 female C57B1/6J mice were injected with 5 doses on 5 consecutive days of 12 ng/g body weight BA1, CMA or the well characterised islet β-cell toxin streptozotocin. Pancreases were removed on day 84 and 3 formalin-fixed sections per mouse were immunostained for insulin. The area of insulin-positive islets was measured on digital images using MCID software.

Compound | No. islets per mm^2 pancreas section | effect on islet number and size | Median size
CN(N=O)C(=O)N[C@H]1C(O)O[C@H](CO)[C@@H](O)[C@@H]1O (mixture of isomers) [Streptozotocin] | 0.46 per mm^2 pancreas section | reduces the number of islets but does not induce the formation of new islets | 5890 μm^2
C/C=C/[C@H]1O[C@@](O)([C@@H](C)[C@H](O)[C@H](C)[C@H]2OC(=O)/C(OC)=C/C(C)=C/[C@@H](C)[C@@H](O)[C@@H](CC)[C@@H](O)[C@H](C)C/C(C)=C/C=C/[C@@H]2OC)C[C@@H](O[C@H]2C[C@@H](O)[C@H](OC(N)=O)[C@@H](C)O2)[C@@H]1C [CMA, concanamycin A] | 0.78 per mm^2 pancreas section | increased the number of small islets | 3170 μm^2
